From patent US10786451B2, “Process for preparing a dry powder formulation comprising an anticholinergic, a corticosteroid and a beta-adrenergic” (CHIESI FARMACEUTICI S.P.A., priority 2015, dated 2020)

What was measured:
[1] = Uniformity of distribution of the active ingredients in the blend (12 samples, HPLC); assay type: physicochemical
Procedure: In the context of the present application the flow properties were tested by measuring the flow rate through an orifice according to the method described in the European Pharmacopeia (Eur. Ph.) 8.6, 8th Edition, which is incorporated herein by reference in its entirety. […] It is usually determined according to known methods, for instance by taking samples from different parts of the powder and testing the component by HPLC or other equivalent analytical methods. The uniformity of distribution of the active ingredients was evaluated by withdrawing 12 samples from different parts of the blend and evaluated by HPLC.

[2] = Aerosol performance by Next Generation Impactor (NGI) from multidose dry powder inhaler; assay type: physicochemical
Text: With the term “mid FPF” is defined as the fraction of delivered dose having a particle size comprised between […].
After aerosolization of 3 doses from the inhaler device, the NGI apparatus was disassembled and the amounts of drug deposited in the stages were recovered by washing with a solvent mixture and then quantified by High-Performance Liquid Chromatography (HPLC)

[3] = Particle size (volume diameter) by laser diffraction, Malvern apparatus; assay type: physicochemical; details: micronized material as used
Procedure: The size of the particles active is determined by measuring the characteristic equivalent sphere diameter, known as volume diameter, by laser diffraction. In the reported examples, the volume diameter has been determined using a Malvern apparatus. However, other equivalent apparatus may be used by the skilled person in the art.

[4] = formulations disclosed Table 3 of WO 2015/004243; cited from earlier work
[5] = Batch CY (Cyclomix), reference formulation per WO 2015/004243
[6] = Batch MF (mechano-fusion), reference formulation per WO 2015/004243
[7] = powder formulation of Example 2
[8] = powder formulation of Example 2, NGI, 3 doses
[9] = powder formulation of Example 2, between 2.0 and 5.0 micron
[10] = powder formulation of Example 2, particle size equal to or lower than 5.0 micron
[11] = powder formulation of Example 3
[12] = powder formulation of Example 3, NGI
[13] = powder formulation of Example 3, between 2.0 and 5.0 micron
[14] = powder formulation of Example 3, particle size equal to or lower than 5.0 micron

For `CCC(=O)OCC(=O)[C@@]1(OC(=O)CC)[C@@H](C)C[C@H]2[C@@H]3CCC4=CC(=O)C=C[C@]4(C)[C@@]3(Cl)[C@@H](O)C[C@@]21C` [BDP, beclometasone dipropionate], the Uniformity of distribution ([1]; powder formulation of Example 2 (6 μg FF, 100 μg BDP, 12.5 μg GB per 10 mg carrier), mean value, RSD in next column) was 101.8, the Uniformity of distribution ([1]; powder formulation of Example 3 (6 μg FF, 100 μg BDP, 25 μg GB per 10 mg carrier)) was 100.2 and the “Delivered Dose” value [2, 5] was 90.6 µg. The “Extrafine Particle Fraction <2 μm” value [2, 5] was 53.9%, the “Extrafine Particle Mass <2 μm” value [2, 5] was 48.8 µg and the “Fine Particle Fraction” value [2, 5] was 71.2%. For the same compound, the “Fine Particle Mass” value [2, 5] was 64.5 µg, the MMAD [2, 5] was 1.08 μm and the “Mid Fine Particle Mass” value [2, 5] was 15.7 µg. The “Mid Fine particle Fraction” value [2, 5] was 17.3%, the “Delivered Dose” value [2, 6] was 95.7 µg and the “Extrafine Particle Fraction <2 μm” value [2, 6] was 52.2%. The “Extrafine Particle Mass <2 μm” value [2, 6] was 50.0 µg, the “Fine Particle Fraction” value [2, 6] was 69.9% and the “Fine Particle Mass” value [2, 6] was 66.9 µg. For the same compound, the MMAD [2, 6] was 1.13 μm, the “Mid Fine Particle Mass” value [2, 6] was 16.9 µg and the “Mid Fine particle Fraction” value [2, 6] was 17.7%. For the same compound, the “Extrafine Particle Fraction <1 μm” value [2, 7] was 28.7%, the “Extrafine Particle Fraction <2 μm” value [2, 7] was 51.4% and the “Extrafine Particle Mass <1 μm” value [2, 7] was 27.9 µg. The “Extrafine Particle Mass <2 μm” value [2, 7] was 50 µg, the “Fine Particle Fraction” value [2, 7] was 69.4% and the MMAD [2, 7] was 1.25 μm. For the same compound, the “Delivered Dose” value [2, 8] was 97.4 µg, the “Mid Fine Particle Mass” value [2, 9] was 17.6 µg and the “Mid Fine particle Fraction” value [2, 9] was 18%. For the same compound, the “Fine Particle Mass” value [2, 10] was 67.6 µg, the “Extrafine Particle Fraction <1 μm” value [2, 11] was 16.2% and the “Extrafine Particle Fraction <2 μm” value [2, 11] was 40.3%. The “Extrafine Particle Mass <1 μm” value [2, 11] was 13.1 µg, the “Extrafine Particle Mass <2 μm” value [2, 11] was 32.7 µg and the “Fine Particle Fraction” value [2, 11] was 61.8%. For the same compound, the MMAD [2, 11] was 1.62 μm, the “Delivered Dose” value [2, 12] was 80.9 µg and the “Mid Fine Particle Mass” value [2, 13] was 17.3 µg. For the same compound, the “Mid Fine particle Fraction” value [2, 13] was 21.4%, the “Fine Particle Mass” value [2, 14] was 50.0 µg and the “particle size d(v0.1)” value [3] was 0.7 micron. The “particle size d(v0.5)” value [3] was 1.5 micron and the “particle size d(v0.9)” value [3] was 2.8 micron.
For `C[N+]1(C)CCC(OC(=O)C(O)(c2ccccc2)C2CCCC2)C1` (centres unmarked) [GB, Glycopyrronium bromide], the “mid FPF” value [4] is listed as “about 20%”, the “Delivered Dose” value [2, 5] is listed as 11.6 µg and the “Extrafine Particle Fraction <2 μm” value [2, 5] is listed as 34.5%. For the same compound, the “Extrafine Particle Mass <2 μm” value [2, 5] was 4.0 µg, the “Fine Particle Fraction” value [2, 5] was 53.8% and the “Fine Particle Mass” value [2, 5] was 6.6 µg. The MMAD [2, 5] was 1.78 μm, the “Mid Fine Particle Mass” value [2, 5] was 2.6 µg and the “Mid Fine particle Fraction” value [2, 5] was 22.4%. The “Delivered Dose” value [2, 6] was 11.9 µg, the “Extrafine Particle Fraction <2 μm” value [2, 6] was 33.6% and the “Extrafine Particle Mass <2 μm” value [2, 6] was 4.0 µg. For the same compound, the “Fine Particle Fraction” value [2, 6] was 57.2%, the “Fine Particle Mass” value [2, 6] was 6.4 µg and the MMAD [2, 6] was 1.75 μm. For the same compound, the “Mid Fine Particle Mass” value [2, 6] was 2.5 µg, the “Mid Fine particle Fraction” value [2, 6] was 21.0% and the “Extrafine Particle Fraction <1 μm” value [2, 7] was 15.4%. For the same compound, the “Extrafine Particle Fraction <2 μm” value [2, 7] was 37.6%, the “Extrafine Particle Mass <1 μm” value [2, 7] was 1.8 µg and the “Extrafine Particle Mass <2 μm” value [2, 7] was 4.39 µg. The “Fine Particle Fraction” value [2, 7] was 67.2%, the MMAD [2, 7] was 1.92 μm and the “Delivered Dose” value [2, 8] was 11.66 µg. The “Mid Fine Particle Mass” value [2, 9] was 3.46 µg, the “Mid Fine particle Fraction” value [2, 9] was 29.6% and the “Mid Fine particle Fraction” value ([2]; powder formulation of Example 2, between 2.0 and 5.0 micron, listed as glycopyrrolate) was “about 30%”. The “Fine Particle Mass” value [2, 10] was 7.85 µg, the “Extrafine Particle Fraction <1 μm” value [2, 11] was 8.7% and the “Extrafine Particle Fraction <2 μm” value [2, 11] was 27.4%. The “Extrafine Particle Mass <1 μm” value [2, 11] was 1.75 µg, the “Extrafine Particle Mass <2 μm” value [2, 11] was 5.49 µg and the “Fine Particle Fraction” value [2, 11] was 57.1%. For the same compound, the MMAD [2, 11] was 2.15 μm, the “Delivered Dose” value [2, 12] was 20.03 µg and the “Mid Fine Particle Mass” value [2, 13] was 5.94 µg. For the same compound, the “Mid Fine particle Fraction” value [2, 13] was 29.7%, the “Mid Fine particle Fraction” value ([2]; powder formulation of Example 3, between 2.0 and 5.0 micron, listed as glycopyrrolate) was “about 30%” and the “Fine Particle Mass” value [2, 14] was 11.43 µg. For the same compound, the “particle size d(v0.1)” value [3] was 0.39 micron, the “particle size d(v0.5)” value [3] was 1.91 micron and the “particle size d(v0.9)” value [3] was 4.77 micron.
With `O.OC[C@H]1O[C@@H](O[C@H]2[C@H](O)[C@@H](O)[C@@H](O)O[C@@H]2CO)[C@H](O)[C@@H](O)[C@H]1O` [Micronized alpha-lactose monohydrate, alpha-lactose monohydrate] the “particle size d(v0.1)” value [3] was 1.7 micron, the “particle size d(v0.5)” value [3] was 4.3 micron and the “particle size d(v0.9)” value [3] was 9.8 micron.
